# Results reported in patent US9993570B2, “Radiolabeled tracers for poly (ADP-ribose) polymerase-1 (PARP-1), methods and uses therefor” (Washington University, priority 2014, dated 2018).
# Tested on: head and neck cell lines SCC1 and SCC25
# Experiment: [18F]WC-4-138 uptake in cell culture, head and neck lines
# Format: cell-based
# Conditions: SCC1 and SCC25, incubation 5, 30 or 60 minutes, normalized to protein
# Method: In these experiments, the head and neck squamous cell carcinoma lines SCC1, SCC15, and SCC25 (ATCC) were propagated in Dulbecco's Modified Eagle's Medium (DMEM, Gibco) supplemented with 10% Fetal Bovine Serum (FBS, Gibco), Penicillin-Streptomycin (P/S, Gibco), and 100 ng/ml hydrocortisone (Sigma-Aldrich). The small cell lung cancer lines NCI-h69 and NCI-h82 (ATCC) were propagated m RPMI Medium (Gibco) supplemented with 10% FBS and 1% P/S. The human breast cancer cell line MDA-MB-231 (ATCC) was propagated in Eagle's Minimum Essential Medium (Gibco) supplemented with 5% FBS, 2% Vitamins for MEM (Gibco), 1% 200 mM L-glutamine (Gibco), 1% 10 mM Non-Essential Amino Acid (NEAA, Gibco).
# For each experimental replicate, approximately 1 μCi of [^18F]WC-4-138 was diluted in 1 ml of cell culture medium and added to 10^6 cells. After 5, 30, or 60 minutes, the medium was collected and cells were washed twice in 0.7 ml Phosphate Buffered Saline (PBS, Gibco). Adherent cells were collected by scraping the cell culture dish and transferring to a microfuge tube. Radioactivity was measured in the collected medium, PBS, or cell pellets. Protein from the cell pellet was quantified using a […]. All data were decay-corrected and normalized to total protein quantity in the cell pellet. For drug treatment studies, cells were incubated with 10 μM Olaparib or Iniparib twenty-hours prior to incubation with [^18F]WC-4-138.
# The head and neck cell lines SCC1 and SCC25 constitutively take up small amounts of tracer, registering as 0.001-0.002 μCi/μg in the cell pellet (FIG. 5A). […] Radioactivity was measured in head and neck squamous cell cancer (HNSCC) lines (SCC1 and SCC25) or small cell lung cancer (SCLC) lines (NCI-h69 and NCI-h82) after incubation with [^18F]WC-4-138 for 5, 30, or 60 minutes (n=3 at each time point). […] PARP activity was measured in HNSCC or lung SCLC cells. (FIG. 5C-D) [^18F]WC-4-138 uptake was measured in HNSCC cell lines treated with olaparib or iniparib. […]
smiles,measurement,value
O=C1NCCn2c(-c3ccc(OCC[18F])cc3)nc3cccc1c32 [[^18F]12],tracer uptake in the cell pellet,0.001-0.002 μCi/μg
